# pIC50: −log10 of the molar value.
# Target: T1, full length AKT E17K (Homo sapiens, UniProt P31749, E17K)
# T1 construct: host or cells: HEK-293 (ATCC CRL-1573)
# Test: NanoBRET Target Engagement (TE) Assay
# Type: cell-based
# Details: competitive displacement of tracer in cells, read-out: AKT1 E17K IC50
# In short: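 Compound and tracer incubated 2 h before luminescence at donor 450 nm and acceptor 600 nm, with extracellular signal inhibited. EC50 by sigmoidal variable-slope regression.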
# T1 sequence (P31749 whole entry E17K): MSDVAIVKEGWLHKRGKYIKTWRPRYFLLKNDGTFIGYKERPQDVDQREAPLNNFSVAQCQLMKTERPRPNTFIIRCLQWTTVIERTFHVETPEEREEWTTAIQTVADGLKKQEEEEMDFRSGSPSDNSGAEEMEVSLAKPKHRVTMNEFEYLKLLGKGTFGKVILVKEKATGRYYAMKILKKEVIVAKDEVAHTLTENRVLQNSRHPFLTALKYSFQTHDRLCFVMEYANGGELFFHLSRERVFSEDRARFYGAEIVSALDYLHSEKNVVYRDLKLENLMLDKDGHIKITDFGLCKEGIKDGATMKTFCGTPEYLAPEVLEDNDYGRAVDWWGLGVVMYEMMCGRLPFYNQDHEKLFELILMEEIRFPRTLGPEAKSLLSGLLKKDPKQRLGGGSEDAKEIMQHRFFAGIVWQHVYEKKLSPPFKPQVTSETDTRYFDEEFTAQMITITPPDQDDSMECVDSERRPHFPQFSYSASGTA
row,pIC50,Structure (SMILES)
1,> 7.82,"CC(C)n1ncc(-c2ccc3nc(-c4nccnc4N)n(-c4ccc(CN5CCC(Nc6ccnc(C#N)n6)CC5)cc4)c3n2)n1 [Example 630, 4-((1-(4-(2-(3-Aminopyrazin-2-yl)-5-(2-isopropyl-2H-1,2,3-triazol-4-yl)-3H-imidazo[4,5-b]pyridin-3-yl)benzyl)piperidin-4-yl)amino)pyrimidine-2-carbonitrile]"
2,> 7.82,"COc1cc(-c2ccc3nc(-c4cccnc4N)n(-c4ccc(CN5CCC(Nc6ccnc(C#N)n6)CC5)cc4)c3n2)ccc1F [Example 439, 4-((1-(4-(2-(2-Aminopyridin-3-yl)-5-(4-fluoro-3-methoxyphenyl)-3H-imidazo[4,5-h]pyridin-3-yl)benzyl)piperidin-4-yl)amino)pyrimidine-2-carbonitrile]"
3,7.22 to 7.82,"N#Cc1nccc(N2C[C@H]3CN(Cc4ccc(-n5c(-c6cccnc6N)nc6ccc(-c7ccccc7)nc65)cc4)C[C@H]3C2)n1 [Example 339, 4-((3aR,6aS)-5-(4-(2-(2-aminopyridin-3-yl)-5-phenyl-3H-imidazo[4,5-b]pyridin-3-yl)benzyl)hexahydropyrrolo[3,4-c]pyrrol-2(1H)-yl)pyrimidine-2-carbonitrile]"
4,> 7.82,"CNC(=O)c1ccc2nc(-c3cccnc3N)n(-c3ccc(CN4CCC(Nc5ccnc(C#N)n5)CC4)cc3)c2n1 [Example 398, 2-(2-Aminopyridin-3-yl)-3-(4-((4-((2-cyanopyrimidin-4-yl)amino)piperidin-1-yl)methyl)phenyl)-N-methyl-3H-imidazo[4,5-h]pyridine-5-carboxamide]"
5,> 7.82,"COc1ccc(-c2ccc3nc(-c4cccnc4N)n(-c4ccc(CN5CCC(Nc6ccnc(C#N)n6)CC5)cc4)c3n2)cn1 [Example 516, 4-((1-(4-(2-(2-Aminopyridin-3-yl)-5-(6-methoxypyridin-3-yl)-3H-imidazo[4,5-b]pyridin-3-yl)benzyl)piperidin-4-yl)amino)pyrimidine-2-carbonitrile]"
6,> 7.82,"COc1ccncc1-c1ccc2nc(-c3cccnc3N)n(-c3ccc(CN4CCC(Nc5ccnc(C#N)n5)CC4)cc3)c2n1 [Example 536, 4-((1-(4-(2-(2-Aminopyridin-3-yl)-5-(4-methoxypyridin-3-yl)-3H-imidazo[4,5-b]pyridin-3-yl)benzyl)piperidin-4-yl)amino)pyrimidine-2-carbonitrile]"
7,7.22 to 7.82,"N#Cc1cc2c(cn1)nc(-c1cccnc1N)n2-c1ccc(CN2CCC(Nc3ccnc(C#N)n3)CC2)cc1 [Example 553, 2-(2-Aminopyridin-3-yl)-1-(4-((4-((2-cyanopyrimidin-4-yl)amino)piperidin-1-yl)methyl)phenyl)-1H-imidazo[4,5-c]pyridine-6-carbonitrile]"
8,> 7.82,"N#Cc1nccc(NC2CCN(Cc3ccc(-n4c(-c5cccnc5N)nc5ccc(-c6ccc(C7CC7)nc6)nc54)cc3)CC2)n1 [Example 587, 4-((1-(4-(2-(2-Aminopyridin-3-yl)-5-(6-cyclopropylpyridin-3-yl)-3H-imidazo[4,5-b]pyridin-3-yl)benzyl)piperidin-4-yl)amino)pyrimidine-2-carbonitrile]"

# Continued, compound first:
row,Structure (SMILES),pIC50
1,"N#Cc1nccc(NC2CC3(CCN(Cc4ccc(-n5c(-c6cccnc6N)nc6ccc(-c7ccccc7)nc65)cc4)CC3)C2)n1 [Example 362, 4-((7-(4-(2-(2-Aminopyridin-3-yl)-5-phenyl-3H-imidazo[4,5-b]pyridin-3-yl)benzyl)-7-azaspiro[3.5]nonan-2-yl)amino)pyrimidine-2-carbonitrile]",> 7.82
2,"CC(C)Oc1ccc(-c2ccc3nc(-c4cccnc4N)n(-c4ccc(CN5CCC(Nc6ccnc(C#N)n6)CC5)cc4)c3n2)cn1 [Example 642, 4-((1-(4-(2-(2-Aminopyridin-3-yl)-5-(6-isopropoxypyridin-3-yl)-3H-imidazo[4,5-b]pyridin-3-yl)benzyl)piperidin-4-yl)amino)pyrimidine-2-carbonitrile]",> 7.82
3,"Cc1cc(F)ccc1-c1ccc2nc(-c3cccnc3N)n(-c3ccc(CN4CCC(Nc5ccnc(C#N)n5)CC4)cc3)c2n1 [Example 523, 4-((1-(4-(2-(2-Aminopyridin-3-yl)-5-(4-fluoro-2-methylphenyl)-3H-imidazo[4,5-b]pyridin-3-yl)benzyl)piperidin-4-yl)amino)pyrimidine-2-carbonitrile]",7.22 to 7.82
4,"CN(C)c1ccc2nc(-c3cccnc3N)n(-c3ccc(CN4CCC(Nc5ccnc(C#N)n5)CC4)cc3)c2n1 [Example 389, 4-((1-(4-(2-(2-Aminopyridin-3-yl)-5-(dimethylamino)-3H-imidazo[4,5-b]pyridin-3-yl)benzyl)piperidin-4-yl)amino)pyrimidine-2-carbonitrile]",> 7.82
5,"N#Cc1nccc(NC2CCN(Cc3ccc(-n4c(-c5cccnc5N)nc5cc(Br)c(-c6ccc(F)cc6)nc54)cc3)CC2)n1 [Example 549, 4-((1-(4-(2-(2-Aminopyridin-3-yl)-6-bromo-5-(4-fluorophenyl)-3H-imidazo[4,5-b]pyridin-3-yl)benzyl)piperidin-4-yl)amino)pyrimidine-2-carbonitrile]",> 7.82
6,"N#Cc1nccc(NC2CCN(Cc3ccc(-n4c(-c5cccnc5N)nc5ccc(CO)nc54)cc3)CC2)n1 [Example 508, 4-((1-(4-(2-(2-Aminopyridin-3-yl)-5-(hydroxymethyl)-3H-imidazo[4,5-b]pyridin-3-yl)benzyl)piperidin-4-yl)amino)pyrimidine-2-carbonitrile]",7.22 to 7.82
7,"Cc1ccc(-c2ccc3nc(-c4cccnc4N)n(-c4ccc(CN5CCC(Nc6ccnc(C#N)n6)CC5)cc4)c3n2)nc1 [Example 547, 4-((1-(4-(2-(2-Aminopyridin-3-yl)-5-(5-methylpyridin-2-yl)-3H-imidazo[4,5-b]pyridin-3-yl)benzyl)piperidin-4-yl)amino)pyrimidine-2-carbonitrile]",> 7.82

# Same assay, conditions: competitive tracer displacement in living cells, read-out: AKT1 E17K IC50
row,pIC50,Structure (SMILES)
1,5.00 to 6.22,"N#Cc1cccnc1OC1CCN(Cc2ccc(-n3c(-c4cccnc4N)nc4cc(-c5ccccc5)cnc43)cc2)CC1 [Example 12, 2-((1-(4-(2-(2-Aminopyridin-3-yl)-6-phenyl-3H-imidazo[4,5-b]pyridin-3-yl)benzyl)piperidin-4-yl)oxy)nicotinonitrile]"
2,> 7.82,"N#Cc1nccc(N2CC3CCC2CN3Cc2ccc(-n3c(-c4cccnc4N)nc4ccc(-c5ccccc5)nc43)cc2)n1 (stereo not drawn) [Example 219, 4-(5-(4-(2-(2-Aminopyridin-3-yl)-5-phenyl-3H-imidazo[4,5-b]pyridin-3-yl)benzyl)-2,5-diazabicyclo[2.2.2]octan-2-yl)pyrimidine-2-carbonitrile]"
3,> 7.82,"N#Cc1cc(NC2CCN(Cc3ccc(-n4c(-c5cccnc5N)nc5ccc(-c6ccccc6)nc54)cc3)CC2)ncn1 [Example 91, 6-((1-(4-(2-(2-Aminopyridin-3-yl)-5-phenyl-3H-imidazo[4,5-b]pyridin-3-yl)benzyl)piperidin-4-yl)amino)pyrimidine-4-carbonitrile]"
4,7.22 to 7.82,"N#Cc1ccnc(N2CCN(Cc3ccc(-n4c(-c5cccnc5N)nc5ccc(-c6cccc(F)c6)nc54)cc3)CC2)n1 [Example 309, 2-(4-(4-(2-(2-Aminopyridin-3-yl)-5-(3-fluorophenyl)-3H-imidazo[4,5-b]pyridin-3-yl)benzyl)piperazin-1-yl)pyrimidine-4-carbonitrile]"
5,6.22 to 7.22,"CC(=O)Nc1cccc(-c2ccc3nc(-c4cccnc4N)n(-c4ccc(CN5CCN(c6cnnc(C#N)c6)CC5)cc4)c3n2)c1 [Example 43, N-(3-(2-(2-Aminopyridin-3-yl)-3-(4-((4-(6-cyanopyridazin-4-yl)piperazin-1-yl)methyl)phenyl)-3H-imidazo[4,5-b]pyridin-5-yl)phenyl)acetamide]"
6,6.22 to 7.22,"N#Cc1ccc(N2CCN(Cc3ccc(-n4c(-c5cccnc5N)nc5ccc(-c6ccccc6)nc54)cc3)CC2)cn1 [Example 94, 5-(4-(4-(2-(2-Aminopyridin-3-yl)-5-phenyl-3H-imidazo[4,5-b]pyridin-3-yl)benzyl)piperazin-1-yl)picolinonitrile]"

# Further lines, the compound ahead of its results:
row,Structure (SMILES),pIC50
1,"N#Cc1ccc(OC2CCN(Cc3ccc(-n4c(-c5cccnc5N)nc5cccnc54)cc3)CC2)nc1 [Example 1, 6-((1-(4-(2-(2-Aminopyridin-3-yl)-3H-imidazo[4,5-b]pyridin-3-yl)benzyl)piperidin-4-yl)oxy)nicotinonitrile]",5.00 to 6.22
2,"N#Cc1nccc(NC2CCN(Cc3ccc(-n4c(-c5cccnc5N)nc5ccc(C6CCOCC6)nc54)cc3)CC2)n1 [Example 299, 4-((1-(4-(2-(2-Aminopyridin-3-yl)-5-(tetrahydro-2H-pyran-4-yl)-3H-imidazo[4,5-b]pyridin-3-yl)benzyl)piperidin-4-yl)amino)pyrimidine-2-carbonitrile]",> 7.82
3,"N#Cc1ccnc(C(=O)N2CCN(Cc3ccc(-n4c(-c5cccnc5N)nc5cccnc54)cc3)CC2)c1 [Example 149, 2-(4-(4-(2-(2-Aminopyridin-3-yl)-3H-imidazo[4,5-b]pyridin-3-yl)benzyl)piperazine-1-carbonyl)isonicotinonitrile]",5.00 to 6.22
4,"N#Cc1nc2c(C(=O)NCc3ccc(-n4c(-c5cccnc5N)nc5cccnc54)cc3)cc(F)cc2s1 [Example 174, N-(4-(2-(2-aminopyridin-3-yl)-3H-imidazo[4,5-b]pyridin-3-yl)benzyl)-2-cyano-6-fluorobenzo[d]thiazole-4-carboxamide]",7.22 to 7.82
5,"N#Cc1cncc(N2CCN(Cc3ccc(-n4c(-c5cccnc5N)nc5cccnc54)cc3)CC2)c1 [Example 16, 5-(4-(4-(2-(2-Aminopyridin-3-yl)-3H-imidazo[4,5-b]pyridin-3-yl)benzyl)piperazin-1-yl)nicotinonitrile]",5.00 to 6.22
6,"CC(=O)Nc1cccc(-c2ccc3nc(-c4cccnc4N)n(-c4ccc(CN5CCN(c6cc(C#N)ncn6)CC5)cc4)c3n2)c1 [Example 41, N-(3-(2-(2-Aminopyridin-3-yl)-3-(4-((4-(6-cyanopyrimidin-4-yl)piperazin-1-yl)methyl)phenyl)-3H-imidazo[4,5-b]pyridin-5-yl)phenyl)acetamide]",> 7.82

# From patent US12209087B2, “AKT1 modulators” (Alterome Therapeutics, Inc., priority 2022, dated 2025)
